In patent US20130090360A1 (priority 2010, published 2013):
Where two headings read alike, the source gives them in different places.

What was measured:
Pyricuaria oryzae = format: in vivo, Pyricuaria oryzae on rice plants (variety Tainong 67); conditions: field, natural infection
Pyricularia oryzae = format: in vivo, Pyricularia oryzae on rice plants (variety Tainong 67); conditions: field, natural infection

| Compound | Efficacy % 22 days after first application (Pyricuaria oryzae; application rate 25 g ai/ha) [%] | Efficacy % 22 days after first application (Pyricuaria oryzae; application rate 50 g ai/ha) [%] | Efficacy % 22 days after first application (Pyricuaria oryzae; application rate 75 g ai/ha) [%] | Efficacy % 15 days after first application (Pyricularia oryzae; application rate 25 g ai/ha) [%] | Efficacy % 15 days after first application (Pyricularia oryzae; application rate 50 g ai/ha) [%] | Efficacy % 15 days after first application (Pyricularia oryzae; application rate 75 g ai/ha) [%] | Efficacy % 22 days after first application (Pyricuaria oryzae; application rate 100 g ai/ha) [%] | Efficacy % 22 days after first application (Pyricuaria oryzae; application rate 200 g ai/ha) [%] | Efficacy % 15 days after first application (Pyricularia oryzae; application rate 100 g ai/ha) [%] |
| --- | --- | --- | --- | --- | --- | --- | --- | --- | --- |
| Fc1ccc([C@]2(Cn3cncn3)O[C@H]2c2ccccc2Cl)cc1 (racemic) [Epoxiconazole (EPX), epoxiconazole] | 1.2 | 0.0 | 5.6 | 17.7 | 24.1 | 35.1 | – | – | – |
| Cc1cccc2sc3nncn3c12 [Tricyclazol, tricyclazole] | – | – | – | – | – | – | 5.6 | 0.0 | 34.9 |
